In US9458110B2, “Phenylpyrazole derivatives as potent ROCK1 and ROCK2 inhibitors” (BRISTOL-MYERS SQUIBB COMPANY, priority 2013, dated 2016):
Like-named read-outs stand apart in the source and are kept apart here.

Experiments:
[1] = tested on: IL-1 beta-induced coronary stenosis; settings: long term treatment; cited from earlier work
[2] = tested on: neointimal formation; settings: rats, balloon injury model; cited from earlier work
[3] = tested on: congestive heart failure in Dahl salt-sensitive rats; settings: cited from earlier work
[4] = tested on: rat models of hypertension; settings: cited from earlier work
[5] = molecular target: ROCK2 (Homo sapiens (Human), UniProt O75116); test: ROCK assay (Caliper LABCHIP peptide phosphorylation), ROCK2; format: biochemical; settings: 5 μM ATP, 1.5 μM peptide substrate;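 further: reaction stopped with EDTA, then phosphorylated and unphosphorylated peptide resolved by microfluidic electrophoresis, kinase inhibition computed at each compound concentration in dose-response series, DMSO under 2%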
[6] = molecular target: ROCK1 (Homo sapiens (Human), UniProt Q13464); test: ROCK assay (Caliper LABCHIP peptide phosphorylation), ROCK1; format: biochemical; settings: 5 μM ATP, 1.5 μM peptide substrate;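 further: Read-out is separation of phosphorylated from unphosphorylated peptide, with kinase activity inhibition computed at every concentration of a dose-response series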
ROCK1, sequence (Q13464 whole entry, species assumed): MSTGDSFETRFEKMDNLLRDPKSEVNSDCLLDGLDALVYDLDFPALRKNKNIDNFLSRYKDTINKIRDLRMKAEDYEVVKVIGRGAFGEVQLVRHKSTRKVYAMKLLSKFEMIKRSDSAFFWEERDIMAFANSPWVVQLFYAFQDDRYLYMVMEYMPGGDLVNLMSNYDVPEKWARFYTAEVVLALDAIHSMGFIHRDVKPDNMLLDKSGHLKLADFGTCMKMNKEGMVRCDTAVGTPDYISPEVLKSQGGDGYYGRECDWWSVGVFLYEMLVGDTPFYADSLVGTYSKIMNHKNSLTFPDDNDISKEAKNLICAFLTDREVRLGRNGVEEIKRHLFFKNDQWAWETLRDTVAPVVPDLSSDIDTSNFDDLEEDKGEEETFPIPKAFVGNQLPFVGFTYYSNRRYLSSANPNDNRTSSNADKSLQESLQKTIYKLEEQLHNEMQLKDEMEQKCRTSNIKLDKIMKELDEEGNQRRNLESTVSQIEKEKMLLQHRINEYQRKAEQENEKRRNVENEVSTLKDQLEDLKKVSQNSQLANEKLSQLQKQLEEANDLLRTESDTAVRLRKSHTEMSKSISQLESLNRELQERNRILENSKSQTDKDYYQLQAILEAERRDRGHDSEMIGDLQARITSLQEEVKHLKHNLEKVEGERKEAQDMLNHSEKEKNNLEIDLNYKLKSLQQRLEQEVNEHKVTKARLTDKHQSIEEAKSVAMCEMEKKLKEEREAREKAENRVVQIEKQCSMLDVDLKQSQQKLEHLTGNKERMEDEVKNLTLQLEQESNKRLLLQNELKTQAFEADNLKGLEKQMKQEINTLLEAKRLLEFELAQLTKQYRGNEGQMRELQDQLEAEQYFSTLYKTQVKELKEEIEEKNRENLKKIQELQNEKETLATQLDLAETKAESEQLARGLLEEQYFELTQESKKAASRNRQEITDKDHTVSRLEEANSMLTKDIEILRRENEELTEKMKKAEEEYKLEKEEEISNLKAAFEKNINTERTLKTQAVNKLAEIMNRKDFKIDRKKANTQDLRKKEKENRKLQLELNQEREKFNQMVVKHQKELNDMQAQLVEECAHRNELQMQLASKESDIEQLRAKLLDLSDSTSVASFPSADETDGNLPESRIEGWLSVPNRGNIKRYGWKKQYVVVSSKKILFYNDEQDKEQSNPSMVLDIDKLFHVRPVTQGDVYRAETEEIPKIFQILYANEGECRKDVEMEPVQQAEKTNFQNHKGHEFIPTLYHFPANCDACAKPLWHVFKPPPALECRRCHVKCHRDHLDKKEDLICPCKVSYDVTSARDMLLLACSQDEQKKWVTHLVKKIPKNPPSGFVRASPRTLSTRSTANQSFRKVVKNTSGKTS

ROCK2, sequence (O75116 whole entry, species assumed): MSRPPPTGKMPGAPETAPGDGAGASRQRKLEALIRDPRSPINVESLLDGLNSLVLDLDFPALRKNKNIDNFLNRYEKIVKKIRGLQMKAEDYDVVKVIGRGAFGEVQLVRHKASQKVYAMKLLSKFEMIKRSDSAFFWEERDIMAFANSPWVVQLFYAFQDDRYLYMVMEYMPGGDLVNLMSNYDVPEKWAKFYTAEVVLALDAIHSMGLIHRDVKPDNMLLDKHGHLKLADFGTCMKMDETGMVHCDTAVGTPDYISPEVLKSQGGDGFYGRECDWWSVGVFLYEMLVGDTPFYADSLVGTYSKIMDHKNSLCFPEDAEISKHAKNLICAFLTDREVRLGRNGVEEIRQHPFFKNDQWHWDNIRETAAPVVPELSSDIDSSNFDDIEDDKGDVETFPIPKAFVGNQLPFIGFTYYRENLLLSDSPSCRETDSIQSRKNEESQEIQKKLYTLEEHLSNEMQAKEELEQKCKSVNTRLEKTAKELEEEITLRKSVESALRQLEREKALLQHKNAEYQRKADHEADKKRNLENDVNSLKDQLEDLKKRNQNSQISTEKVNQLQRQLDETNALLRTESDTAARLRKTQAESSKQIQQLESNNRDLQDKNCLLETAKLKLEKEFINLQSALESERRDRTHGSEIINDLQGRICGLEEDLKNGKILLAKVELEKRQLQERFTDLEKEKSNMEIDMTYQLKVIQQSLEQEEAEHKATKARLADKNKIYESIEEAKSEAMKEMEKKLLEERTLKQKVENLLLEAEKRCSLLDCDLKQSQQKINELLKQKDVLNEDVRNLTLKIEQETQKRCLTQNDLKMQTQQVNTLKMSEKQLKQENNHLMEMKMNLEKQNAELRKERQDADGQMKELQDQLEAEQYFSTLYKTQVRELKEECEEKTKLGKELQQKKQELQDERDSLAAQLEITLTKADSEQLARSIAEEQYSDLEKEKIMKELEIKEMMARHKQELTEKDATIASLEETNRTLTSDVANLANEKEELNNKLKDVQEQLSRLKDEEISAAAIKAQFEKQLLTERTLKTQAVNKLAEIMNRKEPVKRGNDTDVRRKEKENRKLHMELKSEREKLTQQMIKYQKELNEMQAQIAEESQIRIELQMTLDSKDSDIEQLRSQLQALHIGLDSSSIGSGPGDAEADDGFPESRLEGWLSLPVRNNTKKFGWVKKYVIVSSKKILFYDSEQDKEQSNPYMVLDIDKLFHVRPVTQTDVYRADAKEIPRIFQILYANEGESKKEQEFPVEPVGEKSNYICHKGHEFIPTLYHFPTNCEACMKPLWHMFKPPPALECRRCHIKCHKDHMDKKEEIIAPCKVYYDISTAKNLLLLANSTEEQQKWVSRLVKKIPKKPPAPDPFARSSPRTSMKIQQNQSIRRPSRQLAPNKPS

Row | SMILES | IC50 [5] [nM] | IC50 [6] [nM] | other results
1 | O=S(=O)(c1cccc2cnccc12)N1CCCNCC1 [fasudil] |  |  | coronary stenosis and coronary constrictive remodeling [1]: progressively reduce coronary stenosis, as well as promote a regression of coronary constrictive remodeling
2 | C[C@@H](N)[C@H]1CC[C@H](C(=O)Nc2ccncc2)CC1 [Example Y-27632] |  |  | neointimal formation [2]: inhibited neointimal formation; ventricular hypertrophy, fibrosis and function [3]: improve ventricular hypertrophy, fibrosis and function; blood pressure ([4]; control rats): only a minor effect on blood pressure; blood pressure ([4]; spontaneously hypertensive rat, renal hypertensive rat and deoxycortisone acetate salt hypertensive rat models): significantly decrease blood pressure
3 | COC(=O)c1cc(C(=O)N[C@H](C)c2ccc(F)cc2)ccc1-c1cn[nH]c1 [Example 295, (R)-Methyl 5-((1-(4-fluorophenyl)ethyl)carbamoyl)-2-(1H-pyrazol-4-yl)benzoate] | 563 | 1700 | 

Now from value to molecule, other results behind:

Row | IC50 [5] [nM] | IC50 [6] [nM] | SMILES | other results
4 | 21 | 30.6 | COc1cccc([C@@H](C)NC(=O)c2ccc(-c3c[nH]nc3C#N)cc2OC)c1 [Example 303, 4-(3-Cyano-1H-pyrazol-4-yl)-2-methoxy-N-[(1R)-1-(3-methoxyphenyl)ethyl]benzamide] | 
5 | 41.6 | 84.1 | COc1cc(C(=O)NC[C@@H](O)c2ccccc2)ccc1-c1cn[nH]c1 [Example 123, N-[(2S)-2-hydroxy-2-phenylethyl]-3-methoxy-4-(1H-pyrazol-4-yl)benzamide] | 
6 | 9.37 | 23.6 | COc1cc(C(=O)N[C@H](CNC(C)=O)c2ccccc2)ccc1-c1cn[nH]c1 [Example 259, N-[(25)-2-{[3-methoxy-4-(1H-pyrazol-4-yl)phenyl] formamido}-2-phenylethyl] acetamide] | 
7 | 2.97 | 13.2 | COc1cc(C(=O)NCc2c(F)ccc(C)c2F)ccc1-c1cn[nH]c1 [Example 80, N-(2,6-difluoro-3-methylbenzyl)-3-methoxy-4-(1H-pyrazol-4-yl)benzamide] | 
